Measured values reported in patent US8273700B2, “Methods and compositions for treatment of cystic fibrosis” (The Johns Hopkins University, priority 2005, dated 2012).
“Also recorded” adds a separate entry of the source. Where a SMILES comes first, the peptide text is derived from it. [ ]: non-standard residue; d: D form. Nle = CCCC[C@H](N)C(=O)O

Legend:
CFTR = biological target: T1, CFTR (Homo sapiens, UniProt P13569, DEL508-508); assay: MQAE assay of CFTR-mediated chloride transport in IB3-1 cells; type: cell-based; conditions: for MQAE fluorescence (Cl- channel activity): 10 μM forskolin or genistein, 5 μM CFTR inhibitor 172 or 14-22 amide (FIG. 5A)
T1 construct: expressed in transfected cells; host or cells: IB3-1 (ΔF508/W1282X) and CFTE (ΔF508 homozygous) cells
Procedure: CFTR-mediated chloride transport activity in IB3-1 cells transfected with ΔVCP, VCPQQ, Δgp78 and gp78ΔC constructs, and treated with bortezomib (1, 5 or 10 μM) was assayed by the halide-sensitive dye, MQAE. Fluorescence of MQAE is quenched by halides. Cells were grown on glass coverslips in DMEM containing 10% FBS. Cells were loaded with the dye by hypotonic shock at 37° C. for 40 min in Opti-MEM/water (1:1) containing 10 mM MQAE, washed and then mounted in a perfusion chamber for fluorescence measurements. Fluorescence was measured using a Zeiss inverted microscope coupled to a CCD camera Excitation and emission wavelengths were 350 nm and 460 nm, respectively. The stage and objective lenses were maintained at 37° C. The media was kept flowing through the perfusion chamber at 1 ml/min using a peristaltic pump. Both 10 μM forskolin and 10 μM genistein were used to induce Cl^− transport in IB3-1 cells. CFTR was inhibited with either 5 μM CFTR inhibitor 172 (12) or 14-22 amide (Calbiochem, San Diego, Calif.) to reduced cAMP mediated phosphorylation. Chloride efflux was calculated using following equations: F0/FCl=1+[Cl-]i*Ksv (1) F0=F20*(1+0.02*Ksv) (2) (dCl/dt)=F0/[Ksv*(FCl)2]*dFCl/dt (3)

ΔF508-CFTR [1] = system: ΔF508-CFTR; design: dose or concentration left out as unconfirmed; conditions: cited from earlier work
ΔF508-CFTR [2] = assay: Pulse-chase metabolic labeling and CFTR immunoprecipitation in IB3-1 cells; type: cell-based, human; conditions: metabolic labeling t=2 hrs, transfection 48 hrs or 10 μM bortezomib 6 hrs (FIG. 2D)
Procedure: (§1) The IB3-1 (ΔF508/W1282X; low level expression of ΔF508-CFTR and no W1282X protein), CFTE (ΔF508-homozygous) and S9 (IB3-1 corrected by AAV-CFTR) cells were maintained in LHC-8 media containing 100 units/ml penicillin, 100 μg/ml streptomycin, 0.25 μg/ml amphotericin B and 10% fetal bovine serum. LHC-8 media was purchased from Biosource and other components were purchased from Gibco (Invitrogen, Carlsbad, Calif.). The cells were plated on 6-well plates and transfected with 4 μg plasmid DNA each of ΔF508/wt-CFTR-GFP and co-transfected with VCP shRNA (ΔVCP), VCPQQ construct (deficient in two AAA ATPase domains, D1 & D2), gp78 siRNA (Δgp78) or gp78ΔC (deficient in VCP binding domain) constructs using Lipofectamine 2000 (Invitrogen, Carlsbad, Calif.) as described by the manufacturer. After 48 hrs of transfection, cells were rinsed three times and starved for 1 hr in methionine- and cysteine-free Dulbecco's modified Eagle's medium (DMEM). Cells were pulse labeled with 250 μci/ml [^35S]-methionine and cysteine (ICN Biomedical, Irvine, Calif.) for 30 min and than chased in DMEM containing 10 mM methionine and 4 mM cysteine for indicated times.
(§2) Cells were lysed directly on plates using M-PER (Pierce Biotech. Inc., Rockford, Ill.) protein lysis buffer containing protease inhibitor cocktail (Roche) after three washes with ice cold PBS. […] Proteins were detected using respective primary antibodies. […]

wt-CFTR = assay: Pulse-chase metabolic labeling and CFTR immunoprecipitation in S9 cells; type: cell-based, human; conditions: S9 cells transfected with wt-CFTR; ΔVCP 48 hrs or 10 μM bortezomib 6 hrs (FIG. 2B)
Procedure: as §1, §2

ΔF508-CFTR [3] = assay: Pulse-chase metabolic labeling and CFTR immunoprecipitation in CFTE cells; type: cell-based, human; conditions: CFTE cells transfected with ΔF508-CFTR, 10 μM bortezomib 6 hrs, 42 hrs post-transfection (FIG. 2C)
Procedure: as §1, §2

VCP = assay: Immunoblotting for VCP in IB3-1 cells; type: cell-based, human; conditions: IB3-1 cells treated with bortezomib 6 hrs (FIG. 3A)
Procedure: (§3) Cells were lysed directly on plates using M-PER (Pierce Biotech. Inc., Rockford, Ill.) protein lysis buffer containing protease inhibitor cocktail (Roche) after three washes with ice cold PBS. CF bronchial brushings were transferred to lysis buffer. For immunoprecipitation, 500 μg/ml (cell culture)/50 μg/ml (bronchial brushings) total protein extracts were incubated with 50 μl of protein A/G agarose beads (Santa Cruz Biotechnology Inc., Santa Cruz, Calif.) for 3 hours at 4° C. After preclearing, 5 μg of respective primary antibody or pre-immune sera (negative control) was added to each tube. After 1 hour, protein A/G agarose beads (50 μL) were added to each tube and tubes were incubated overnight at 4° C. Beads were washed once with lysis buffer (20 mM Tris-HCl [pH 7.6], 150 mM NaCl, 0.5% Triton X-100 and 10 μM phenylmethylsulfonyl fluoride [PMSF]) followed with two washes with phosphate buffer saline (PBS). The beads were suspended in Laemmli's sample buffer (30 μL) containing β-mercaptoethanol, vortexed for 1 minute, resolved by 4-10% SDS-PAGE and transferred to a 0.4-μm pore size nitrocellulose membrane. Proteins were detected using respective primary antibodies. For pulse chase experiments, CFTR immunoprecipitate was eluted with sample buffer and separated on a 4-8% SDS-PAGE, dried for 2 hours and processed for autoradiography.

Hsp70 = assay: Immunoblotting for Hsp70 in IB3-1 cells; type: cell-based, human; conditions: IB3-1 cells treated with bortezomib 6 hrs (FIG. 3A)
Procedure: as §3

gp78 = assay: Immunoblotting for gp78 in IB3-1 cells; type: cell-based, human; conditions: IB3-1 cells treated with bortezomib 6 hrs (FIG. 3A)
Procedure: as §3

Hsp40 = assay: Immunoblotting for Hsp40 in IB3-1 cells; type: cell-based, human; conditions: IB3-1 cells treated with bortezomib 6 hrs (FIG. 3A)
Procedure: as §3

proteasome = assay: Protease activity in IB3-1 cells; type: cell-based, human; conditions: 10 μM, 6 hrs treatment
IB3-1 cells = assay: Microscopic examination of cell morphology; type: cell-based, human; conditions: 10 μM bortezomib 6 hrs, phase microscopy (data not shown)
IL8 = IL8 cytokine ELISA in IL1-β induced IB3-1 cells; type: cell-based, human; conditions: for IL8 cytokine levels: IL1-β 1 ng/ml 12 hrs
NFκB = assay: NoShift NFκB binding assay on nuclear extracts of IB3-1 cells; type: cell-based, human; conditions: for NFκB binding (absorbance at 450 nm): IL1-β 1 ng/ml 12 hrs, transfection 24 hrs or 5 μM bortezomib / 5 μM MLN-273 6 hrs (FIG. 6C)
Procedure: IB3-1 cells transfected (24 hrs) with ΔVCP, ΔF508 or ΔCHOP were treated with 5 μM bortezomib (6 hrs)/5 μM MLN-273 (6 hrs)/5 mM 4PBA (24 hrs). Cells were induced with IL-β(1 ng/ml) for 12 hrs. After 24 hrs of transfection, nuclear extracts (11) were collected using NucBuster protein extraction kit (Novagen, San Diego, Calif.) and the shift in bound NFκB was measured using NoShift NFκB Binding Assay kit (Novagen, San Diego, Calif.) as specified by the manufacturer. The signal from nuclear extracts was compared with the negative control (minus extract). The specificity of protein binding was established using NFκB specific and mutant competitors. The plates were read at 450 nm on 96-well microplate reader (Molecular Devices) using SOFT-MAX-Pro software. The absorbance readings were used to determine the levels of bound NFκB. The data represents mean of three independent experiments±SD.

NF-κB = conditions: mammalian cells; cited from earlier work
[4] = system: E-selectin, ICAM-1, and VCAM-1; conditions: primary human umbilical vein endothelial cells; cited from earlier work
[5] = system: streptococcal cell wall-induced polyarthritis; conditions: rat; cited from earlier work
[6] = transfection 24 hrs or 5 μM bortezomib / 5 μM MLN-273 6 hrs (FIG. 6B)

T1 sequence (P13569 with tags, fused parts or gaps DEL508-508): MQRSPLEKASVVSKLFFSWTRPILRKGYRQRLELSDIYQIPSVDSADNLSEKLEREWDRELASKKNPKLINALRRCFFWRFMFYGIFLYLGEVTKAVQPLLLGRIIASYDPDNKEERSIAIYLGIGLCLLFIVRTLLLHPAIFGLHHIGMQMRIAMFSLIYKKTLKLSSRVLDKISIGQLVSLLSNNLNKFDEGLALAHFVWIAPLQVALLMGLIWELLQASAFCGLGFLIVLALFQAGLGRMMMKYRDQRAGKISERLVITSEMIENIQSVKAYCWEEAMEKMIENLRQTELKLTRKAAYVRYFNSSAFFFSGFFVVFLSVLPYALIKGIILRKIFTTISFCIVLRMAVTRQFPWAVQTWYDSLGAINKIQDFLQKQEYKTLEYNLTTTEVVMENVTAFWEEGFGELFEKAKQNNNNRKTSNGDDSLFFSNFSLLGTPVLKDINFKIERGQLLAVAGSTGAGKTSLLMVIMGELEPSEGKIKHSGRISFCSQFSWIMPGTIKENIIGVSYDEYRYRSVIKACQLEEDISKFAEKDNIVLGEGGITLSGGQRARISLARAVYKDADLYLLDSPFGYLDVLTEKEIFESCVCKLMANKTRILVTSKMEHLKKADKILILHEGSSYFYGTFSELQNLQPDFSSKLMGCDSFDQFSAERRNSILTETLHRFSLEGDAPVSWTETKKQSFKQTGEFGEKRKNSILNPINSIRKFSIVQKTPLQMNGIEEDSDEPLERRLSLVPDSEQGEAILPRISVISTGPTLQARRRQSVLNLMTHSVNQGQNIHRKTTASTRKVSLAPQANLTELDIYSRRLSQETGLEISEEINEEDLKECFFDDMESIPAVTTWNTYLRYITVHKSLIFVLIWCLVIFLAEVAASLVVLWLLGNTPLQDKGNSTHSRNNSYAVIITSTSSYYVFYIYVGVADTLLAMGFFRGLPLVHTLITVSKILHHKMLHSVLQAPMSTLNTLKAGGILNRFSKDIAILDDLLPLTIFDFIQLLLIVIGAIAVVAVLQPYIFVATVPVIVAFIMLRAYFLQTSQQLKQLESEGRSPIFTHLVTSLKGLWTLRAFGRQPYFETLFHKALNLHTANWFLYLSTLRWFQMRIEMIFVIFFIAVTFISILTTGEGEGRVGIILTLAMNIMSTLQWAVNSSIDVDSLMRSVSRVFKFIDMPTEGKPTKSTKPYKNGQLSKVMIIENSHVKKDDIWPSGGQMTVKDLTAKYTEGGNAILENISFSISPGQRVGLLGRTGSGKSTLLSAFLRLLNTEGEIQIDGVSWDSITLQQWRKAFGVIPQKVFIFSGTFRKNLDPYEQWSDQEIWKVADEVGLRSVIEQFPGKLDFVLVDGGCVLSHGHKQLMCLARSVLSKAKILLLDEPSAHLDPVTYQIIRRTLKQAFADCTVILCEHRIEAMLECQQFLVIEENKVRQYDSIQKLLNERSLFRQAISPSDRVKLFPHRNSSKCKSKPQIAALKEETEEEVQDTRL

With `O=C(O)c1ccc(/C=C2\SC(=S)N(c3cccc(C(F)(F)F)c3)C2=O)cc1` [172 inhibitor] the “MQAE fluorescence (Cl- channel activity)” value (CFTR; IB3-1 cells) was “block the cAMP mediated cystic fibrosis transmembrane receptor (CFTR) activity”.
With `O=c1c(-c2ccc(O)cc2)coc2cc(O)cc(O)c12` [genistein] the “MQAE fluorescence (Cl- channel activity)” value (CFTR; IB3-1 cells) was “significant change” and the “MQAE fluorescence (Cl- channel activity)” value (CFTR; IB3-1 cells, listed as Genistein) was “significant increase”.
For `CCCC[C@@H](C=O)NC(=O)[C@H](CC(C)C)NC(=O)[C@H](CC(C)C)NC(C)=O` [ALLN, N-acetyl-leucylleucyl-Norleucinal] (Ac-Leu-Leu-[Nle]-aldehyde), the ΔF508-CFTR degradation (ΔF508-CFTR [1]) is given as “blocks ΔF508-CFTR it degradation”.
For `CC(C)C[C@H](NC(=O)[C@H](Cc1ccccc1)NC(=O)c1cnccn1)B(O)O` [bortezomib, pyrazylcarbonyl-Phe-Leu-boronate], the “level of immature B form of ΔF508-CFTR” value (ΔF508-CFTR [2]) was “partially rescues”, the “rescue of ΔF508-CFTR from ERAD” value (ΔF508-CFTR [2]) was “partially rescued ΔF508-CFTR” and the “wt-CFTR maturation and stability, band B to band C” value (wt-CFTR) was “substantial amounts of mature band C; also recorded: stabilizes the wild type-CFTR mature (C-form)”. The “ΔF508-CFTR accumulation and rescue” value (ΔF508-CFTR [3]) was “significant increase in the accumulation and stabilization of the B form; also recorded: rescues the ΔF508-CFTR mature (C-form) by 2 hrs”, the VCP protein level (VCP) was “inhibition” and the VCP protein level (VCP; listed as Bortezomib) was “inhibited”. The Hsp70 protein level (Hsp70) was “Induction”, the Hsp70 protein level (Hsp70; listed as Bortezomib) was “induced” and the gp78 protein level (gp78) was “no change”. For the same compound, the Hsp40 protein level (Hsp40) was “no change”, the protease activity (proteasome) was “partial inhibition” and the “morphology of treated vs untreated monolayers” value (IB3-1 cells) was “no difference in morphology”. The “genistein mediated chloride efflux” value (CFTR; IB3-1 cells transfected with ΔF508-CFTR, bortezomib 5 or 10 μM for 6 hrs, bars in mM/s (FIG. 5C)) was “augmented chloride efflux; also recorded: significantly induced”, the “combined effect with genistein on rescue of functional ΔF508-CFTR” value (CFTR; IB3-1 cells, with genistein (FIG. 5C)) was “synergistic effect” and the IL8 cytokine levels (IL8; [6]) was “significantly inhibited”. The IL8 cytokine levels (IL8; transfection 48 hrs or 5 μM bortezomib 6 hrs (FIG. 6A)) was “significantly downregulated; also recorded: significantly inhibited”, the “combined effect of ΔCHOP and bortezomib on IL8 down regulation” value (IL8; ΔCHOP 24 hrs plus 5 μM bortezomib 6 hrs, IL1-β 1 ng/ml (FIG. 6B)) was “synergistic effect” and the “NFκB binding (absorbance at 450 nm)” value (NFκB) was “significantly inhibited”. The “combined effect of ΔCHOP and bortezomib on NFκB binding” value (NFκB; ΔCHOP 24 hrs plus 5 μM bortezomib 6 hrs, IL1-β 1 ng/ml (FIG. 6C)) was “synergistic effect”, the “NF-κB activation and NF-κB-dependent gene expression” value (NF-κB) was “inhibit NF-κB activation and NF-κB-dependent gene expression” and the “TNF-α-induced gene expression of cell-surface adhesion molecules” value [4] was “inhibits”. The “T cell-dependent chronic phase of the inflammatory response” value [5] was “markedly inhibited” and the “neutrophil-predominant acute phase of the inflammatory response” value [5] was “attenuated”.
With `CC(C)C[C@H](NC(=O)[C@H](Cc1cccc2ccccc12)NC(=O)N1CCOCC1)B(O)O` [MLN273] the IL8 cytokine levels (IL8; [6]) was “significantly inhibited” and the “NFκB binding (absorbance at 450 nm)” value (NFκB) was “significantly inhibited”.
